Measured values reported in patent US20100137239A1, “GEMCITABINE COMBINATION THERAPY” (GLOUCESTER PHARMACEUTICALS, priority 2006, published 2010).
Values joined by “and” are separate entries in the source; they are usually repeats but may differ in a detail not shown here. Identical values can stand only once.

Legend:
[1] = system: Panc-1 human pancreas tumors; test: Panc-1 mouse xenograft tumor growth (Example 1); format: in vivo; details: for tumor growth inhibition: Panc-1 xenograft in female nude mice, FK228 IV Q4Dx3, gemcitabine IP Q3Dx4, vs vehicle control
Method: In this study, female nude mice were implanted subcutaneously (SC) by trocar with Panc-1 tumor fragments harvested from SC growing tumors in nude mice hosts. […] The day of treatment initiation was specified as Day 1. Vehicle control and FK228 were administered intravenously on a Q4Dx3 schedule (Days 1, 5, and 9). Gemcitabine was administered by an intraperitoneal injection on a Q3Dx4 schedule (Days 1, 4, 7, 10). Tumors were measured by Vernier calipers twice weekly.

acetylated histone 4 = test: Immunoblot of acetylated histone 4 in PANC-1 xenograft tumors; format: in vivo, human; details: FK228 5 mg/kg Q4Dx3; gemcitabine 80 mg/kg Q3Dx4; tumors at study completion; vs controls
Method: (§1) Abstract: To examine activity and mechanism of FK228, antitumor efficacy was tested in PANC-1 pancreatic adenocarcinoma model representing transformed Ras, either as a single agent or in combination with gemcitabine. Following PANC-1 study completion, tumor and sera were obtained from: • the vehicle control; • FK228 dosed at 5 mg/kg once every four days for three treatments (Q4Dx3); • Gemcitabine at 80 mg/kg (Q3Dx4); and • the drug combination. Expression of c-Myc, acetylated histones 3 and 4, and p21^waf1 was compared between control and FK228 groups by immunoblotting and was quantified following actin normalization. Serum levels of putative tumor products b-FGF and MMP-2 were quantified by human-specific ELISA. […]
(§2) Tissue Biomarkers: Tumor levels of acetylated histone-4, histone-4, c-Myc, p21waf and β-actin were quantified by immunoblotting as described. […] The chemiluminescence signal was captured by autoradiography, quantified by densitometry and expressed as a ratio of actin in each sample lane. For each biomarker, means and standard errors were calculated in each treatment group. […]
(§3) Expression of c-Myc, acetylated histones 3 and 4, and p21^waf1 was compared between control and FK228 groups by immunoblotting and was quantified following actin normalization. Serum levels of putative tumor products b-FGF and MMP-2 were quantified by human-specific ELISA. […]

[2] = system: BxPC-3 Human Pancreatic Tumor Xenograft; test: BxPC-3 xenograft tumor growth inhibition study (Example 3); format: in vivo, mouse xenograft; details: for % TGI: BxPC-3, Day 29; for activity according to NCI Standards / #PR/CR / FINAL TUMOR VOLUME (DAY 29) MEAN ± SEM / calculated TGI values (discussion): BxPC-3; for calculated TGI values (discussion): all evaluated doses and schedules
From the text: (Madison, Wis.). […] Tumor measurements were converted to cubic millimeter tumor volume using the formula^(5): […] Final mean tumor volume ±SEM for each group was reported; animals experiencing partial or complete tumor regressions or animals experiencing technical or drug-related deaths were censored from these calculations. […] TGI values for each treatment group are reported at study completion; these calculations are based on the final study day. […] If partial tumor regression was reported in multiple animals within one group, a mean value was determined. Individual mice lacking palpable tumors were classified as undergoing complete regression (CR). Animals experiencing partial or complete tumor regressions were censored from TGI calculations. However, data from these animals was included in statistical analysis calculations. In addition, weight data from these animals was included in daily and final group calculations. Tumor Necrosis-Degree of tumor necrosis was rated at each tumor measurement using the following arbitrary index: [table]

acetylated histone 3 = test: Immunoblot of acetylated histone 3 in PANC-1 xenograft tumors; format: in vivo, human; details: FK228 5 mg/kg Q4Dx3; gemcitabine 80 mg/kg Q3Dx4; tumors at study completion; vs controls
Method: as §1, §2, §3

[3] = FK228 2.5 mg/kg IV Q4Dx3, 2.5 mg/kg
[4] = FK228 5 mg/kg IV Q4Dx3, 5 mg/kg

C/C=C1\NC(=O)[C@H]2CSSCC/C=C/[C@H](CC(=O)N[C@H](C(C)C)C(=O)N2)OC(=O)[C@H](C(C)C)NC1=O [FK228, romidepsin] was tested, and the tumor growth inhibition [1] was 26%, the “increase of acetylated histone 4” value (acetylated histone 4) was “over 2 fold” and the “% TGI” value ([2]; FK228 2.5 mg/kg IV Q4Dx3) was “No TGI”. For the same compound, the “% TGI” value ([2]; FK228 5 mg/kg IV Q4Dx3) was “No TGI”, the “activity according to NCI Standards” value ([2]; FK228 2.5 mg/kg IV Q4Dx3) was “inactive” and the “#PR/CR” value [2, 3] was 0/9 and 0/0. The “FINAL TUMOR VOLUME (DAY 29) MEAN ± SEM” value [2, 3] was 2440±643 mm^3, the “activity according to NCI Standards” value ([2]; FK228 5 mg/kg IV Q4Dx3) was “inactive” and the “#PR/CR” value [2, 4] was 0/9 and 0/0. The “FINAL TUMOR VOLUME (DAY 29) MEAN ± SEM” value [2, 4] was 2620±238 mm^3, the “calculated TGI values (discussion)” value [2] was “No tumor growth inhibition” and the “single agent activity towards tumor model” value ([2]; wildtype ras BxPC-3) was “inactive”. The “acetylation of histone 3” value (acetylated histone 3) was “not affected”.
With Nc1ccn([C@@H]2O[C@H](CO)[C@@H](O)C2(F)F)c(=O)n1 [Gemcitabine, gemcitabine] the tumor growth inhibition [1] was 50%, the “animals with tumor regression” value ([1]; Panc-1 xenograft, N=9 mice per group) was “no regression” and the “increase of acetylated histone 4” value (acetylated histone 4) was “on the control level”. The “% TGI” value ([2]; Gemcitabine 40 mg/kg IP Q3Dx4) was 20%, the “% TGI” value ([2]; Gemcitabine 80 mg/kg IP Q3Dx4) was 9% and the “#PR/CR” value ([2]; Gemcitabine 40 mg/kg IP Q3Dx4) was 0/9 and 0/0. For the same compound, the “FINAL TUMOR VOLUME (DAY 29) MEAN ± SEM” value ([2]; Gemcitabine 40 mg/kg IP Q3Dx4) was 1683±426 mm^3, the “activity according to NCI Standards” value ([2]; Gemcitabine 40 mg/kg IP Q3Dx4) was “inactive” and the “#PR/CR” value ([2]; Gemcitabine 80 mg/kg IP Q3Dx4) was 0/9 and 0/0. For the same compound, the “FINAL TUMOR VOLUME (DAY 29) MEAN ± SEM” value ([2]; Gemcitabine 80 mg/kg IP Q3Dx4) was 1890±237 mm^3, the “activity according to NCI Standards” value ([2]; Gemcitabine 80 mg/kg IP Q3Dx4) was “inactive” and the “calculated TGI values (discussion)” value [2] was “less than 58%”. The “acetylation of histone 3” value (acetylated histone 3) was “significantly inhibited”.
